In patent US20020169101A1, “Treatment of sexual dysfunction” (priority 1999, published 2002):

Biological target: T1, human NMB receptor (BB1) (Homo sapiens, UniProt P28336)
T1 construct: expressed in transfected cells; membranes prepared from the cells
Test: BB1 binding assay ([125I][Tyr4]bombesin displacement, CHO-K1 membranes)
Conditions: not given
Experimental: In the following experiments, measurement of BB1 and BB2 binding was as follows. CHO-K1 cells stably expressing cloned human NMB (for (BB1 assay) and GRP receptors (for BB2 assay) were routinely grown in Ham's F12 culture medium supplemented with 10% foetal calf serum and 2 mM glutamine. For binding experiments, cells were harvested by trypsinization, and stored frozen at −70° C. in Ham's F12 culture medium containing 5% DMSO until required. On the day of use, cells were thawed rapidly, diluted with an excess of culture medium, and centrifuged for 5 minutes at 2000 g. Cells were resuspended in 50 mM Tris-HCl assay buffer (pH 7.4 at 21° C., containing 0.02% BSA, 40 μg/mL bacitracin, 2 μg/mL chymostatin, 4 μg/mL leupeptin, and 2 μM phosphoramidon), counted, and polytronned (setting 5, 10 sec) before centrifuging for 10 minutes at 28,000 g. The final pellet was resuspended in assay buffer to a final cell concentration of 1.5×10^5/mL. For binding assays, […] aliquots of membranes were incubated with [^125I][Tyr^4]bombesin (<0.1 nM) in the presence and absence of test compounds (final assay volume 250 μL) for 60 minutes and 90 minutes for NMB and GRP receptors, respectively. Nonspecific binding was defined by 1 μM bombesin. Assays were terminated by rapid filtration under vacuum onto Whatman GF/C filters presoaked in 0.2% PEI for >2 hours, and washed 50 mM Tris-HCl (pH 6.9 at 21° C.; 6×1 mL). Radioactivity bound was determined using a gamma counter.
All competition data was analysed using nonlinear regression utilizing iterative curve-plotting procedures in Prism® (GraphPad Software Inc., San Diego, USA). IC50 values were corrected to Ki values using the Cheng-Prusoff equation (Cheng Y., Prusoff W. H., Biochem. Pharmacol. 22: 3099-3108, 1973). obtained are listed in Table 1.

T1 sequence (P28336 whole entry): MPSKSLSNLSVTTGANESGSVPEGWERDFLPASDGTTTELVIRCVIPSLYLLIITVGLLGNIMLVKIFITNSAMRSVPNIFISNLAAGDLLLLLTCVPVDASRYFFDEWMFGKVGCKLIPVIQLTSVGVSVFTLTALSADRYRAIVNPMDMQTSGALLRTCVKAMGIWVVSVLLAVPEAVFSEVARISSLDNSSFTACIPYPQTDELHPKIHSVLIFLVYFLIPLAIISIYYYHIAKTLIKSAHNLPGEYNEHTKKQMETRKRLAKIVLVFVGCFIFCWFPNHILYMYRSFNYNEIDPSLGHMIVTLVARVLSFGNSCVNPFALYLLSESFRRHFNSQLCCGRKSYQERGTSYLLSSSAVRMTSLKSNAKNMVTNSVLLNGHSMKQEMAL

In order of rising IC50:
1. C[C@@](Cc1c[nH]c2ccccc12)(NS(=O)(=O)c1ccccc1C(F)(F)F)C(=O)NCC1(c2ccccn2)CCCCC1 [Example 129, (S)-3-(1H-indol-3-yl)-2-methyl-N-(1-pyridin-2-yl-cyclohexylmethyl)-2-(2-trifluoromethyl-benzenesulfonylamino)-propionamide]  134 nM
2. COC(=O)c1sccc1S(=O)(=O)N[C@@](C)(Cc1c[nH]c2ccccc12)C(=O)NCC1(c2ccccn2)CCCCC1 [Example 140]  167 nM
3. Cc1cc(S(=O)(=O)N[C@@](C)(Cc2c[nH]c3ccccc23)C(=O)NCC2(c3ccccn3)CCCCC2)c(Cl)cc1Cl [Example 165]  172 nM
4. C[C@@](Cc1c[nH]c2ccccc12)(NS(=O)(=O)c1cnc(Cl)c(Br)c1)C(=O)NCC1(c2ccccn2)CCCCC1 [Example 161]  187 nM
5. C[C@@](Cc1c[nH]c2ccccc12)(NS(=O)(=O)c1c(Cl)cc(Cl)cc1Cl)C(=O)NCC1(c2ccccn2)CCCCC1 [Example 148]  215 nM
6. C[C@@](Cc1c[nH]c2ccccc12)(NS(=O)(=O)c1ccc(Cl)c(Cl)c1)C(=O)NCC1(c2ccccn2)CCCCC1 [Example 125]  216 nM
7. C[C@@](Cc1c[nH]c2ccccc12)(NS(=O)(=O)c1cccs1)C(=O)NCC1(c2ccccn2)CCCCC1 [Example 119]  232 nM
8. COC(=O)c1ccccc1S(=O)(=O)N[C@@](C)(Cc1c[nH]c2ccccc12)C(=O)NCC1(c2ccccn2)CCCCC1 [Example 155]  242 nM
9. C[C@@](Cc1c[nH]c2ccccc12)(NS(=O)(=O)c1cccc2nsnc12)C(=O)NCC1(c2ccccn2)CCCCC1 [Example 137]  256 nM
10. C[C@@](Cc1c[nH]c2ccccc12)(NS(=O)(=O)c1ccccc1F)C(=O)NCC1(c2ccccn2)CCCCC1 [Example 114]  267 nM
11. C[C@@](Cc1c[nH]c2ccccc12)(NS(=O)(=O)c1ccc(S(=O)(=O)c2ccccc2)s1)C(=O)NCC1(c2ccccn2)CCCCC1 [Example 150]  297 nM
12. C[C@@](Cc1c[nH]c2ccccc12)(NS(=O)(=O)c1ccc(-c2ccccn2)s1)C(=O)NCC1(c2ccccn2)CCCCC1 [Example 160]  344 nM
13. C[C@@](Cc1c[nH]c2ccccc12)(NS(=O)(=O)c1cc([N+](=O)[O-])ccc1Cl)C(=O)NCC1(c2ccccn2)CCCCC1 [Example 147]  374 nM
14. C[C@@](Cc1c[nH]c2ccccc12)(NS(=O)(=O)c1ccc(Cl)s1)C(=O)NCC1(c2ccccn2)CCCCC1 [Example 128]  404 nM
15. CC(C)(C)c1ccc(S(=O)(=O)N[C@@](C)(Cc2c[nH]c3ccccc23)C(=O)NCC2(c3ccccn3)CCCCC2)cc1 [Example 164]  406 nM
16. C[C@@](Cc1c[nH]c2ccccc12)(NS(=O)(=O)c1ccccc1C#N)C(=O)NCC1(c2ccccn2)CCCCC1 [Example 134]  408 nM
17. C[C@@](Cc1c[nH]c2ccccc12)(NS(=O)(=O)Cc1ccccc1[N+](=O)[O-])C(=O)NCC1(c2ccccn2)CCCCC1 [Example 142]  430 nM
18. COc1cc(C)ccc1S(=O)(=O)N[C@@](C)(Cc1c[nH]c2ccccc12)C(=O)NCC1(c2ccccn2)CCCCC1 [Example 159]  445 nM
19. C[C@@](Cc1c[nH]c2ccccc12)(NS(=O)(=O)c1cccc(C#N)c1)C(=O)NCC1(c2ccccn2)CCCCC1 [Example 143]  460 nM
20. C[C@@](Cc1c[nH]c2ccccc12)(NS(=O)(=O)c1ccc([N+](=O)[O-])cc1[N+](=O)[O-])C(=O)NCC1(c2ccccn2)CCCCC1 [Example 162]  475 nM
21. CCCCc1ccc(S(=O)(=O)N[C@@](C)(Cc2c[nH]c3ccccc23)C(=O)NCC2(c3ccccn3)CCCCC2)cc1 [Example 168]  492 nM
22. C[C@@](Cc1c[nH]c2ccccc12)(NS(=O)(=O)c1cccc2nonc12)C(=O)NCC1(c2ccccn2)CCCCC1 [Example 139]  507 nM
23. C[C@@](Cc1c[nH]c2ccccc12)(NS(=O)(=O)c1ccc(Cl)cc1[N+](=O)[O-])C(=O)NCC1(c2ccccn2)CCCCC1 [Example 149]  513 nM
24. Cc1noc(C)c1S(=O)(=O)N[C@@](C)(Cc1c[nH]c2ccccc12)C(=O)NCC1(c2ccccn2)CCCCC1 [Example 136]  515 nM
25. C[C@@](Cc1c[nH]c2ccccc12)(NS(=O)(=O)c1ccc([N+](=O)[O-])cc1)C(=O)NCC1(c2ccccn2)CCCCC1 [Example 123]  515 nM
26. C[C@@](Cc1c[nH]c2ccccc12)(NS(=O)(=O)c1ccc(-c2ccon2)s1)C(=O)NCC1(c2ccccn2)CCCCC1 [Example 141]  534 nM
27. C[C@@](Cc1c[nH]c2ccccc12)(NS(=O)(=O)c1ccc(C(F)(F)F)cc1)C(=O)NCC1(c2ccccn2)CCCCC1 [Example 127]  553 nM
28. Cc1ccc(S(=O)(=O)N[C@@](C)(Cc2c[nH]c3ccccc23)C(=O)NCC2(c3ccccn3)CCCCC2)cc1 [Example 112]  557 nM
29. COc1ccc(S(=O)(=O)N[C@@](C)(Cc2c[nH]c3ccccc23)C(=O)NCC2(c3ccccn3)CCCCC2)cc1OC [Example 132]  608 nM
30. C[C@@](Cc1c[nH]c2ccccc12)(NS(=O)(=O)c1ccc(Cl)c(C(F)(F)F)c1)C(=O)NCC1(c2ccccn2)CCCCC1 [Example 166]  627 nM
31. C[C@@](Cc1c[nH]c2ccccc12)(NS(=O)(=O)c1ccc(OC(F)(F)F)cc1)C(=O)NCC1(c2ccccn2)CCCCC1 [Example 151]  635 nM
32. C[C@@](Cc1c[nH]c2ccccc12)(NS(=O)(=O)c1ccc(C#N)cc1)C(=O)NCC1(c2ccccn2)CCCCC1 [Example 133]  766 nM
33. C[C@@](Cc1c[nH]c2ccccc12)(NS(=O)(=O)c1ccc(S(C)(=O)=O)cc1)C(=O)NCC1(c2ccccn2)CCCCC1 [Example 163]  1040 nM
34. Cc1nn(C)c(Cl)c1S(=O)(=O)N[C@@](C)(Cc1c[nH]c2ccccc12)C(=O)NCC1(c2ccccn2)CCCCC1 [Example 135]  1250 nM
35. CN(C)c1cccc2c(S(=O)(=O)N[C@@](C)(Cc3c[nH]c4ccccc34)C(=O)NCC3(c4ccccn4)CCCCC3)cccc12 [Example 117]  1300 nM
36. Cc1nc(S(=O)(=O)N[C@@](C)(Cc2c[nH]c3ccccc23)C(=O)NCC2(c3ccccn3)CCCCC2)cn1C [Example 144]  2480 nM
37. Cn1cnc(S(=O)(=O)N[C@@](C)(Cc2c[nH]c3ccccc23)C(=O)NCC2(c3ccccn3)CCCCC2)c1 [Example 138]  3670 nM

Same assay, conditions: Table 1, human NMB receptor binding affinity; Ki from IC50 by Cheng-Prusoff; read-out: NMB Ki

In order of rising Ki:
1. C[C@@](Cc1c[nH]c2ccccc12)(Nc1ccccc1-c1ccccc1)C(=O)NCC1(c2ccccn2)CCCCC1 [Example 21, (S)-2-(Biphenyl-2-ylamino)-3-(1H-indol-3-yl)-2-methyl-N-(1-pyridin-2-yl-cyclohexylmethyl)-propionamide]  824 nM
2. C[C@@](Cc1c[nH]c2ccccc12)(NCc1cc2ccccc2o1)C(=O)NCC1(c2ccccn2)CCCCC1 [Example 26]  2400 nM
3. C[C@@](Cc1c[nH]c2ccccc12)(Nc1cccc(-c2ccccc2)n1)C(=O)NCC1(c2ccccn2)CCCCC1 [Example 23, (S)-3-(1H-Indol-3-yl)-2-methyl-2-(6-phenyl-pyridin-2-ylamino)-N-(1-pyridin-2-yl-cyclohexylmethyl)-propionamide]  3370 nM

Same assay, conditions: Table 3, N-acyl derivatives of Intermediate III-7

In order of rising IC50:
1. C[C@@](Cc1c[nH]c2ccccc12)(NC(=O)c1ccoc1)C(=O)NCC1(c2ccccn2)CCCCC1 [Example 59]  1200 nM
2. C[C@@](Cc1c[nH]c2ccccc12)(NC(=O)c1cnc2ccccc2n1)C(=O)NCC1(c2ccccn2)CCCCC1 [Example 78, Quinoxaline-2-carboxyiic acid {(S)-2-(1H-indol-3-yl)-1-methyl-1-[(1-pyridin-2-yl-cyclohexylmethyl)-carbamoyl]-ethyl}-amide]  1420 nM
3. C[C@@](Cc1c[nH]c2ccccc12)(NC(=O)c1ccccn1)C(=O)NCC1(c2ccccn2)CCCCC1 [Example 57]  3710 nM
4. Cc1cc(C(=O)N[C@@](C)(Cc2c[nH]c3ccccc23)C(=O)NCC2(c3ccccn3)CCCCC2)no1 [Example 62]  4130 nM
5. Cn1cccc1C(=O)N[C@@](C)(Cc1c[nH]c2ccccc12)C(=O)NCC1(c2ccccn2)CCCCC1 [Example 63, 1-Methyl-1H-pyrrole-2-carboxylic acid {(S)-2-(1H-indol-3-yl)-1-methyl-1-[(1-pyridin-2-yl-cyclohexylmethyl)-carbamoyl]-ethyl}-amide]  4820 nM

Same assay, conditions: second 'TABLE 4', N-terminal urethane derivatives of Intermediate III-7

In order of rising IC50:
1. C[C@@](Cc1c[nH]c2ccccc12)(NC(=O)OCc1ccc2ncccc2c1)C(=O)NCC1(c2ccccn2)CCCCC1 [Example 110, {(S)-2-(1H-Indol-3-y1)-1-methyl-1-[(1-pyridin-2-yl-cyclohexylmethyl)-carbamoyl]-ethyl}-carbamic acid quinolin-6-ylmethyl ester]  171 nM
2. C[C@@](Cc1c[nH]c2ccccc12)(NC(=O)OCc1ccc(Cl)cc1Cl)C(=O)NCC1(c2ccccn2)CCCCC1 [Example 104, {(S)-2-(1H-Indol-3-y1)-1-methyl-1-[(1-pyridin-2-yl-cyclohexylmethyl)-carbamoyl]-ethyl}-carbamic acid 2,4-dichloro-benzyl ester]  450 nM
